Laboratory results as given in patent publication US12077503B2, “Substituted cyclic amides and their use as herbicides” (FMC CORPORATION, priority 2015, dated 2024).

Experiments:
Type in all cases: in vivo
[1] = system: velvetleaf (Abutilon theophrasti); assay: Test G Post-Emergence Protocol; details: Abutilon theophrasti, post-emergence, 312 h, read-out: Velvetleaf damage rating
How it was run: (§1)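 Sow in soil; grow 8 d (24/16 °C, 14 h light, 65% humidity); spray 15.625/62.5/250 g/ha in acetone:water 50:50 + 0.5% Tween 20; grow on, water twice daily; score damage 0–100 at 13 d.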

corn (Zea mays) [2] = assay: Test G Post-Emergence Protocol; details: Zea mays, post-emergence, 312 h, read-out: Corn damage rating
How it was run: as §1

[3] = system: giant foxtail (Setaria faberi); assay: Test G Post-Emergence Protocol; details: Setaria faberi, post-emergence, 312 h, read-out: Foxtail, Giant damage rating
How it was run: as §1

[4] = system: ivy-leaved morning glory (Ipomoea hederacea); assay: Test G Post-Emergence Protocol; details: Ipomoea, post-emergence, 312 h, read-out: Morningglory, Ivy-leaved damage rating
How it was run: as §1

[5] = system: barnyardgrass (Echinochloa crus-galli); assay: Test G Post-Emergence Protocol; details: Echinochloa crus-galli, post-emergence, 312 h, read-out: Barnyardgrass damage rating
How it was run: as §1

[6] = system: redroot pigweed (Amaranthus retroflexus); assay: Test G Post-Emergence Protocol; details: Amaranthus retroflexus, post-emergence, 312 h, read-out: Pigweed, Redroot damage rating
How it was run: as §1

[7] = system: velvetleaf (Abutilon theophrasti); assay: Test G Pre-Emergence Protocol; details: Abutilon theophrasti, pre-emergence, 312 h, evaluated after 13 days
How it was run: (§2)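 Test compound in 0.5% Tween 20 acetone/water (50:50) was applied at three rates (15.625, 62.5, 250 g/ha) to soil sown one day earlier. After 13 days plants were scored for injury, where 0 means unaffected and 100 means completely damaged.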

corn (Zea mays) [8] = assay: Test G Pre-Emergence Protocol; details: Zea mays, pre-emergence, 312 h, evaluated after 13 days
How it was run: as §2

[9] = system: giant foxtail (Setaria faberi); assay: Test G Pre-Emergence Protocol; details: Setaria faberi, pre-emergence, 312 h, evaluated after 13 days
How it was run: as §2

[10] = system: ivy-leaved morning glory (Ipomoea hederacea); assay: Test G Pre-Emergence Protocol; details: Ipomoea, pre-emergence, 312 h, evaluated after 13 days
How it was run: as §2

[11] = system: barnyardgrass (Echinochloa crus-galli); assay: Test G Pre-Emergence Protocol; details: Echinochloa crus-galli, pre-emergence, 312 h, evaluated after 13 days
How it was run: as §2

[12] = system: redroot pigweed (Amaranthus retroflexus); assay: Test G Pre-Emergence Protocol; details: Amaranthus retroflexus, pre-emergence, 312 h, evaluated after 13 days
How it was run: as §2

[13] = 15.625 g ai/ha, evaluated after 13 days (100=total damage to plant; 0=no damage to plant)
[14] = 62.5 g ai/ha, evaluated after 13 days, 100=total damage to plant, 0=no damage to plant
[15] = 250 g ai/ha, evaluated after 13 days, 100=total damage to plant, 0=no damage to plant

Cc1c[nH]nc1NC(=O)[C@@H]1C(=O)N(C)C[C@H]1c1ccc(C(F)(F)F)cc1 (racemic) [Compound 1660]
0%: pest or weed control at 15.625 g/ha [1, 13] | pest or weed control at 62.5 g/ha [1, 14] | pest or weed control at 250 g/ha [1, 15] | plant injury at 15.625 g/ha (corn (Zea mays) [2]; [13]) | plant injury at 62.5 g/ha (corn (Zea mays) [2]; [14]) | plant injury at 250 g/ha (corn (Zea mays) [2]; [15]) | pest or weed control at 15.625 g/ha [3, 13] | pest or weed control at 62.5 g/ha [3, 14] | pest or weed control at 250 g/ha [3, 15] | pest or weed control at 15.625 g/ha [4, 13] | pest or weed control at 62.5 g/ha [4, 14] | pest or weed control at 250 g/ha [4, 15] | pest or weed control at 15.625 g/ha [5, 13] | pest or weed control at 62.5 g/ha [5, 14] | pest or weed control at 250 g/ha [5, 15] | pest or weed control at 15.625 g/ha [6, 13] | pest or weed control at 62.5 g/ha [6, 14] | pest or weed control at 250 g/ha [6, 15] | pest or weed control at 15.625 g/ha ([7]; 15.625 g ai/ha, read-out: Velvetleaf damage rating (100=total damage to plant; 0=no damage to plant)) | pest or weed control at 62.5 g/ha ([7]; 62.5 g ai/ha, 100=total damage to plant, 0=no damage to plant, read-out: Velvetleaf damage rating) | pest or weed control at 250 g/ha ([7]; 250 g ai/ha, read-out: Velvetleaf damage rating (100=total damage to plant; 0=no damage to plant)) | plant injury at 15.625 g/ha (corn (Zea mays) [8]; 15.625 g ai/ha, read-out: Corn damage rating (100=total damage to plant; 0=no damage to plant)) | plant injury at 62.5 g/ha (corn (Zea mays) [8]; 62.5 g ai/ha, 100=total damage to plant, 0=no damage to plant, read-out: Corn damage rating) | plant injury at 250 g/ha (corn (Zea mays) [8]; 250 g ai/ha, read-out: Corn damage rating (100=total damage to plant; 0=no damage to plant)) | pest or weed control at 15.625 g/ha ([9]; 15.625 g ai/ha, read-out: Foxtail, Giant damage rating (100=total damage to plant; 0=no damage to plant)) | pest or weed control at 62.5 g/ha ([9]; 62.5 g ai/ha, 100=total damage to plant, 0=no damage to plant, read-out: Foxtail, Giant damage rating) | pest or weed control at 250 g/ha ([9]; 250 g ai/ha, read-out: Foxtail, Giant damage rating (100=total damage to plant; 0=no damage to plant)) | pest or weed control at 15.625 g/ha ([10]; 15.625 g ai/ha, read-out: Morningglory, Ivy-leaved damage rating (100=total damage to plant; 0=no damage to plant)) | pest or weed control at 62.5 g/ha ([10]; 62.5 g ai/ha, 100=total damage to plant, 0=no damage to plant, read-out: Morningglory, Ivy-leaved damage rating) | pest or weed control at 250 g/ha ([10]; 250 g ai/ha, read-out: Morningglory, Ivy-leaved damage rating (100=total damage to plant; 0=no damage to plant)) | pest or weed control at 15.625 g/ha ([11]; 15.625 g ai/ha, read-out: Barnyardgrass damage rating (100=total damage to plant; 0=no damage to plant)) | pest or weed control at 62.5 g/ha ([11]; 62.5 g ai/ha, 100=total damage to plant, 0=no damage to plant, read-out: Barnyardgrass damage rating) | pest or weed control at 250 g/ha ([11]; 250 g ai/ha, read-out: Barnyardgrass damage rating (100=total damage to plant; 0=no damage to plant)) | pest or weed control at 15.625 g/ha ([12]; 15.625 g ai/ha, read-out: Pigweed, Redroot damage rating (100=total damage to plant; 0=no damage to plant)) | pest or weed control at 62.5 g/ha ([12]; 62.5 g ai/ha, 100=total damage to plant, 0=no damage to plant, read-out: Pigweed, Redroot damage rating) | pest or weed control at 250 g/ha ([12]; 250 g ai/ha, read-out: Pigweed, Redroot damage rating (100=total damage to plant; 0=no damage to plant))
